Reference: patent US9796751B2, “Glycyrrhetinic acid derivative and use thereof” (INI CORPORATION, priority 2013, dated 2017)

Assays:
[1] = LD50 test; settings: in vivo; read-out: LD50 (lethal dose 50%)
Text: LD50 (lethal dose 50%) of the glycyrrhetinic acid derivative (the compound of the above formula (2)) of the disclosed embodiment and LD50 of carbenoxolone were compared.

[2] = physchem; assay type: physicochemical
[3] = Intracerebral migration after administration via various paths; assay type: in vivo, mice
Text: In this respect, the presently disclosed embodiment has a significant effect.

[4] = tested on: C57BL/6J mouse with chronic constriction injury (CCI) of sciatic nerve; assay: Pain behavior test (mechanical allodynia), chronic constriction injury (CCI) of sciatic nerve, von Frey hair; assay type: in vivo; settings: once a day from 7th to 14th day after CCI operation, Gabapentin 30 mg/kg i.p.
Experimental: Chronic pain was caused by performing a chronic constriction injury (CCI) operation of sciatic nerve on a hind leg of a C57BL/6J mouse (8 week old, n=4 in each group). Threshold values of mechanical strength which indicated avoidance behavior were recorded by pressing a von Frey hair against the foot pad of the mouse's hind leg (from the previous day of the CCI operation to the 14th day after the operation).
Regarding drugs, the below drugs were administered once a day from the 7th day to the 14th day after the operation, and the therapeutic effects were studied. In this example, “Compound No. 37” is a compound represented by the above formula (2).
Control: the same volume of physiological saline
Gabapentin: 30 mg/kg, intraperitoneal administration
Compound No. 37: 100 mg/kg, subcutaneous administration
Compound No. 37: 20 mg/kg, subcutaneous administration
Compound No. 37: 20 mg/kg, intraperitoneal administration

[5] = tested on: glutamate concentration in cerebrospinal fluid; assay: Cerebrospinal fluid glutamate concentration determination (HPLC); assay type: in vivo, mouse; settings: 14th day after CCI operation, compared with Gabapentin group
Experimental: On the 14th day after the CCI operation, cerebrospinal fluid were collected from the foramen magnum of the above-mentioned mice, and the glutamate concentration was measured quantitatively with HPLC.

[6] = tested on: human superoxide dismutase 1 (SOD1) G93A mutant transgenic mice; assay: Survival extension effect in ALS acute-onset model mice (Kaplan-Meier); assay type: in vivo, mouse; settings: 20 mg/kg intraperitoneal three times a week from 7-8 weeks of age; p<0.05
Experimental: The assessment of drug efficacy was conducted using, as an animal model of neurodegenerative diseases, the human superoxide dismutase 1 (SOD1) G93A mutant transgenic mice, which are widely used as an acute-onset model of amyotrophic lateral sclerosis (ALS).
Starting at 7-8 weeks of age, which is considered to be an early ALS onset period, the mice were intraperitoneally administered with 20 mg/kg body weight of the glycyrrhetinic acid derivative of the disclosed embodiment (Compound No. 37 group) or the same volume of physiological saline (saline group) three times a week.
The survival analysis was performed using the Kaplan-Meier method.

[7] = tested on: human amyloid β1-42 peptide (Aβ) intraventricularly injected mice; assay: Fear conditioned learning test in Alzheimer's disease model mice; assay type: in vivo, mouse; settings: 20 mg/kg intraperitoneal three times a week; Aβ 300 pmol/3 μl intraventricular; vs physiological saline group; p<0.05
Experimental: The assessment of drug efficacy of the glycyrrhetinic acid derivative of the disclosed embodiment (Compound No. 37 group) was conducted using, as an animal model of neurodegenerative diseases, the human amyloid β1-42 peptide (Aβ) intraventricularly injected mice (Doi et al., Am J Pathol. 175 (5): 2121-32, 2009), which are widely used as an Alzheimer's disease model.
The mice were intraventricularly injected with 300 pmol/3 μl of Aβ, and from the day of the injection, they were intraperitoneally administered with 20 mg/kg body weight of the glycyrrhetinic acid derivative (Compound No. 37 group) of the disclosed embodiment or the same volume of physiological saline (vehicle group) three times a week. For control group was used wild type mouse (G57BL/6J) of the same age. Behavioral analysis was performed using the following fear conditioned learning test.
Associative learning was assessed using a fear conditioned learning test (Mouri et al., FASEB J. 21, 2135-2148, 2007; Nagai et al., FASEB J. 17, 50-52, and 2003). The mice were placed in a transparent acrylic cage with a stainless steel grid installed therein and were subjected to a 20 second tone stimulus (80 dB) and to an electric stimulus (0.6 mA) in the last 5 seconds. A set of this combination stimulus was repeated 4 times with 15 second intervals, thereby causing fear conditioning. […]

| SMILES | LD50 [1] [mg/kg] | logD [2] | delivery into brain ([3]; injected hypodermically, model mice) | delivery into brain ([3]; intraarterial injection) | reaching central nervous system and medicinal effect ([3]; intraperitoneal injection, model mice) | delivery into brain ([3]; intravenous injection) | pain threshold value compared to Gabapentin group ([4]; 20 mg/kg intraperitoneal) | pain threshold value compared to Gabapentin group ([4]; 100 mg/kg subcutaneous) | glutamate concentration in the cerebrospinal fluid ([5]; 20 mg/kg intraperitoneal) | glutamate concentration in the cerebrospinal fluid ([5]; 20 mg/kg subcutaneous) | glutamate concentration in the cerebrospinal fluid ([5]; 100 mg/kg subcutaneous) | extension of survival on average vs saline group [6] | freezing behavior time in the contextual dependency test (memory disorder improvement) [7] |
| --- | --- | --- | --- | --- | --- | --- | --- | --- | --- | --- | --- | --- | --- |
| CC1(C)[C@@H](OC(=O)CCC(=O)O)CC[C@]2(C)[C@H]3C(=O)C=C4[C@@H]5C[C@@](C)(C(=O)O)CC[C@]5(C)CC[C@@]4(C)[C@]3(C)CC[C@@H]12 [carbenoxolone, reference compound] | 100 |  |  |  |  |  |  |  |  |  |  |  |  |
| C[n+]1cccc(C(=O)N[C@H]2CC[C@]3(C)[C@H]4C(=O)C=C5[C@@H]6C[C@@](C)(C(=O)O)CC[C@]6(C)CC[C@@]5(C)[C@]4(C)CC[C@H]3C2(C)C)c1 [Compound No. 37] | > 5000 | 2.94 | is delivered into brain | delivered into brain | reach a central nervous system and exert a medicinal effect | delivered into brain | significant increases of pain threshold values | significant increases of pain threshold values | a decrease of the glutamate concentration in the cerebrospinal fluid, which was equal to or more than that shown in Gabapentin group | a decrease of the glutamate concentration in the cerebrospinal fluid, which was equal to or more than that shown in Gabapentin group | a decrease of the glutamate concentration in the cerebrospinal fluid, which was equal to or more than that shown in Gabapentin group | about 17 days | significantly moderated the observed reduction in freezing behavior time |
